Where “and” joins values, the source holds several entries; their conditions need not be identical. Equal entries are not always repeated. Where two headings read alike, the source gives them in different places.
Experiments:
[1] = system: Hepatocellular carcinoma (HePG2); assay: Antitumor screening using MTT assay; format: cell-based, human; details: Homo sapiens
[2] = system: mammary gland breast cancer (MCF-7); assay: Antitumor screening using MTT assay; details: Homo sapiens
Text: (§3) Hepatocellular carcinoma (HePG2), mammary gland breast cancer (MCF-7), epithelioid carcinoma cervix cancer (Hela), and human prostate cancer were included on the panel (PC3). […] The cell lines were obtained from the American Type Culture Collection (ATCC) through VACSERA, a Cairo-based holding firm for biological goods and vaccines.
(§4) The panel consisted of hepatocellular carcinoma (HePG2), mammary gland breast cancer (MCF-7), epithelioid carcinoma cervix cancer (Hela) and human prostate cancer (PC3). Human lung fibroblast (WI38) was used to assay the cytotoxicity effect on normal cell. The cell lines were obtained from ATCC via Holding company for biological products and vaccines (VACSERA), Cairo, Egypt. The cytotoxic activity was defined as the concentration of the compound that causes 50% growth inhibition compared with the growth of untreated cells.

[3] = target: human VEGFR-2 (Homo sapiens, UniProt P35968); assay: Human VEGFR-2 enzyme inhibition assay (ELISA)
Chain of human VEGFR-2 (P35968 20-1356): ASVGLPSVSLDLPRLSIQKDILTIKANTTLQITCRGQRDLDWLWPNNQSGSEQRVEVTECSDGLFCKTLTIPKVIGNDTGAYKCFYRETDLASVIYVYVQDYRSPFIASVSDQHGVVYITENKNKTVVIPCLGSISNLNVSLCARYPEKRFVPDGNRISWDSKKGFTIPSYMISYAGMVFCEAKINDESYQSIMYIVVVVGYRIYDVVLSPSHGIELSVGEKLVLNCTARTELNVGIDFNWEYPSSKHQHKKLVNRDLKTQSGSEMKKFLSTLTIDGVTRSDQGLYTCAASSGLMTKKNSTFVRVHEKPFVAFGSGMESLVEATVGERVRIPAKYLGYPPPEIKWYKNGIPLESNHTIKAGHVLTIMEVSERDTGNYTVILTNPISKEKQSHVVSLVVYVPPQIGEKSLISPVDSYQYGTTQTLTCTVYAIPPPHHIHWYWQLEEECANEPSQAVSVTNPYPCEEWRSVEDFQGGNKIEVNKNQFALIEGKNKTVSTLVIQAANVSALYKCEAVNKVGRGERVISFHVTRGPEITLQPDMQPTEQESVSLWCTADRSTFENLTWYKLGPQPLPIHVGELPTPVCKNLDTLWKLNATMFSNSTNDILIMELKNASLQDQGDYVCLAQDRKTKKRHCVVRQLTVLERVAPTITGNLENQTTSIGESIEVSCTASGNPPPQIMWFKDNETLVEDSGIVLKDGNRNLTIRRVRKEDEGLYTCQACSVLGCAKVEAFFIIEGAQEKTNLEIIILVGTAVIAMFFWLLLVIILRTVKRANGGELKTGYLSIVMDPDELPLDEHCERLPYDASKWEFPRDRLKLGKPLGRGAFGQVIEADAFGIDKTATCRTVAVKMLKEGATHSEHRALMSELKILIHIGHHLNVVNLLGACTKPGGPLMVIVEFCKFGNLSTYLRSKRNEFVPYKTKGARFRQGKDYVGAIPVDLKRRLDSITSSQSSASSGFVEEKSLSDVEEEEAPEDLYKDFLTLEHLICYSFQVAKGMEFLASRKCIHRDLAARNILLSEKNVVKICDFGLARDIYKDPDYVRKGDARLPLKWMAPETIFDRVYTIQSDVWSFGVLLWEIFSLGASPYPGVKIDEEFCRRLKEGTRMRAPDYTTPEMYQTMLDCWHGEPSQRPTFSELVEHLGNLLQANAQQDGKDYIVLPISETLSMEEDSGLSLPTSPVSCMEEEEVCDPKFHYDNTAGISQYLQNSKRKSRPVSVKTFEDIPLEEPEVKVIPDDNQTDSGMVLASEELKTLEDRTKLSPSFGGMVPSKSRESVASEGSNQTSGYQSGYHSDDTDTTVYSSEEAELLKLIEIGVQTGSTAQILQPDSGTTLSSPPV
Experimental: (§5) PI3Kα and VEGFR-2 activity were verified by enzyme-linked immunosorbent assay (ELISA) assay technique. […] Then, the mean absorbance of each group of standard and tested compounds was determined. The standard curve was drawn on log–log paper with the absorbance on the Y-axis and the standard concentration on the X-axis.

[4] = In vitro cytotoxicity against human normal cell line (MTT); format: cell-based; details: human, WI38, read-out: Average of Relative viability of cells (%)
Text: (§1) The anticancer agent's selectivity for cancer cells is a critical consideration for any researcher, as it can decrease the molecule's adverse effects on normal human cells.

[5] = system: human lung fibroblast (WI38); assay: as above; format: cell-based; details: Homo sapiens, WI-38, human normal cell line WI38; mean ± SD, n = 3
Text: as §1

[6] = system: epithelioid carcinoma cervix cancer (Hela); assay: Antitumor screening using MTT assay; details: Homo sapiens, HeLa
[7] = target: human PI3Kα (Homo sapiens, UniProt P42336); assay: Human PI3Kα enzyme inhibition assay (ELISA)
Chain of human PI3Kα (P42336 whole entry): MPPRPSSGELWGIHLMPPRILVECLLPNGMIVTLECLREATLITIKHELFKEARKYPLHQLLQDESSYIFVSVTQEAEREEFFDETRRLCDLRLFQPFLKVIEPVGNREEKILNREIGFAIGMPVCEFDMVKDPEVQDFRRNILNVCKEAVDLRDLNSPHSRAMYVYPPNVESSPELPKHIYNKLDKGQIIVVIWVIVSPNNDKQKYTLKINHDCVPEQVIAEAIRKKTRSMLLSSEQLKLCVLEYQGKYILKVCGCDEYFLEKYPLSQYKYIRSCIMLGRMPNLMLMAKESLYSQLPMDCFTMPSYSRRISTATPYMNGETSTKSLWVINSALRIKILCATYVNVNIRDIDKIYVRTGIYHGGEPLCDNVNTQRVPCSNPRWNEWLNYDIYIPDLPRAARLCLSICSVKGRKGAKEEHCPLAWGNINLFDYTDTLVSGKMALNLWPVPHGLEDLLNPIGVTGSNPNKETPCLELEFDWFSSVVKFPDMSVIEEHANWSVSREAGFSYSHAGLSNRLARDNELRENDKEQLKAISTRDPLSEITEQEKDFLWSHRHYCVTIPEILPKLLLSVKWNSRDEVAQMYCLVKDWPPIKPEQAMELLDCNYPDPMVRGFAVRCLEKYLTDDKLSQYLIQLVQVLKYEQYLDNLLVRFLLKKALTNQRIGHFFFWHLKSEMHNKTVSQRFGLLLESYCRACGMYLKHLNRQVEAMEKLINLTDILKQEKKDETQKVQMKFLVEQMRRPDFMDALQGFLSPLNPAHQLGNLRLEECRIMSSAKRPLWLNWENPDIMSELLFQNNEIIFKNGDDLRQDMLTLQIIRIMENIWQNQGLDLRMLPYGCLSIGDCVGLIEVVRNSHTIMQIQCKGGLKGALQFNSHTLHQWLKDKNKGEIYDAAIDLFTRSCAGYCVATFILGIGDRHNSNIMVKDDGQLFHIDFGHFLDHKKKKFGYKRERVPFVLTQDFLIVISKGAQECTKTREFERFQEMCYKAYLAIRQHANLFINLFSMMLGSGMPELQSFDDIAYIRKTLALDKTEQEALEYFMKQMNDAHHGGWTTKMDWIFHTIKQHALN
Chain of human PI3Kα (P27986 whole entry partner): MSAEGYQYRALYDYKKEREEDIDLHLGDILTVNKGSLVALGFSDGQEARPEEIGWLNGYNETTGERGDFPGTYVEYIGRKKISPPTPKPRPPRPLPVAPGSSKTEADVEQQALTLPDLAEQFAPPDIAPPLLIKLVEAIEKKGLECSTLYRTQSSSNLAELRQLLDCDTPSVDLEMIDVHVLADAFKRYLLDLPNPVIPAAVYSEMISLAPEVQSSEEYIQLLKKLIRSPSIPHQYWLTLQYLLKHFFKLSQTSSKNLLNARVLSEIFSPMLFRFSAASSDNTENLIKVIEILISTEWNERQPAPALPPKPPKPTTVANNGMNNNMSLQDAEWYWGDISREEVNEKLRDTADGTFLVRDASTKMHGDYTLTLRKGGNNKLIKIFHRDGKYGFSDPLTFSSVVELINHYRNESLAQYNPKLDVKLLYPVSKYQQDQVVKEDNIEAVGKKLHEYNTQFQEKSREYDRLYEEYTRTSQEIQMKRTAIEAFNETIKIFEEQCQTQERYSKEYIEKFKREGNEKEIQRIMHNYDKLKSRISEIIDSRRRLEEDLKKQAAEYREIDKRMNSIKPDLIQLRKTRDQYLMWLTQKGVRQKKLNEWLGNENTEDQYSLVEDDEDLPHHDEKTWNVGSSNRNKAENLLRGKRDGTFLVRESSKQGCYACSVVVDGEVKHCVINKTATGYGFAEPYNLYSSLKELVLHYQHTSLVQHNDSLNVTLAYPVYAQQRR
Experimental: as §5

[8] = system: HePG2, MCF-7, Hela, PC3 cell lines; assay: Antitumor screening using MTT assay, statements across several cell lines; format: cell-based, human; details: Homo sapiens, PC-3; read-out: IC50 range against HePG and PC3 cell lines
Text: as §3, §4

[9] = system: Hela cells; assay: Cell cycle arrest analysis; format: cell-based, human
Experimental: So, compound 8 was assessed its activity on cell cycle distribution and induction of apoptosis in different phases of Hela cells.
(§2) Annexin V-FITC and PI apoptosis kit were used to detect apoptosis (eBioscience™, San Diego, CA, USA). On a six well plate, Mcf cells were plated at a density of 600,000 cells/ml. The cells were treated with compound 8 at […] after 24 h of incubation. The solvent control consisted of cells developed in medium containing an equivalent volume of DMSO. In accordance with the instructions supplied by the Annexin V-FITC and PI apoptosis kit, the cells were stained with an Annexin V-FITC conjugate and propidium iodide (PI) after 24 h. The percentage of apoptotic, necrotic, and alive cells was then calculated. By using a flow cytometer (NovoCyte, ACEA Biosciences Inc, San Diego, CA, US) and the NovoExpress 1.3.0 software (ACEA Biosciences Inc, San Diego, CA, US), the cells' released fluorescence was examined. Each point on the population plot ("dot plot") corresponds to a single event with a particular fluorescence signal in relation to the axes: Annexin V-FITC green fluorescence.
Researcher : Dr.Omar El-Khouly email : dr.kholy93@gmail.com mob. 01278084495
Assay : Cell Cycle Analysis
Kit used : ab139418_Propidium Iodide Flow Cytometry Kit/BD
Assay samples : Cell culture
code IC50 %G0-G1 %S %G2/M %Pre-G1 Comment
(also on this page, place not known: 0 20 40 60 % OE -G12 /Hela Cont. Hela DNA content %G0-G1 %S %G2/M %Pre-G1)
(1 picture or pasted object on this page, not shown here)

[10] = system: human prostate cancer (PC3); assay: Antitumor screening using MTT assay; details: Homo sapiens
Text: as §3, §4

[11] = system: Hela cells; assay: Detection of apoptosis (Annexin V-FITC/PI); format: cell-based, human
Experimental: In Hela cells, compound 8 induced an early apoptotic effect with 1.79% at 24 h. Also, the enhanced late apoptotic induction with 14.11% by 83-fold compared to the Hela control cell (0.17%). On other hand, necrotic effect in Hela at 24 h was induced by compounds 8 with 8.81% compared to the control cells (1.15%).
as §2

[12] = MCF7, read-out: Average of Relative viability of cells (%)
[13] = read-out: Average of Relative viability of cells (%)

C/C(=N\NC(=S)Nc1ccc(Cl)cc1)c1cc2ccccc2o1 [Compound 8, (E)-2-(1-(benzofuran-2-yl)ethylidene)-N-(4-chlorophenyl)hydrazine-1-carbothioamide]
viability at 1.56 µM ([1]; Conc. 1.56 µM, read-out: Average of Relative viability of cells (%)): 99.5%
viability at 3.125 µM ([1]; Conc. 3.125 µM, read-out: Average of Relative viability of cells (%)): 81.4%
viability at 6.25 µM ([1]; Conc. 6.25 µM, read-out: Average of Relative viability of cells (%)): 67.3%
viability at 12.5 µM ([1]; Conc. 12.5 µM, read-out: Average of Relative viability of cells (%)): 24.9%
viability at 25 µM ([1]; Conc. 25 µM, read-out: Average of Relative viability of cells (%)): 29.1%
viability at 50 µM ([1]; Conc. 50 µM, read-out: Average of Relative viability of cells (%)): 20.8%
viability at 100 µM ([1]; Conc. 100 µM, read-out: Average of Relative viability of cells (%)): 13.2%
IC50 ([1]; mean ± SD, n = 3, read-out: In-vitro cytotoxicity IC50 (µM) HePG2): 9.73 ± 0.7 µM
viability at 1.56 µM [2, 12]: 99.1%
viability at 3.125 µM [2, 12]: 79.8%
viability at 6.25 µM [2, 12]: 65.7%
viability at 12.5 µM [2, 12]: 42.9%
viability at 25 µM [2, 12]: 28.3%
viability at 50 µM [2, 12]: 21.2%
viability at 100 µM [2, 12]: 13.7%
IC50 ([2]; MCF7, read-out: In-vitro cytotoxicity IC50 (µM) MCF-7): 11.6 ± 0.9 µM
IC50 ([3]; VEGFR2 IC50 ng/ml, supplement lab report): 250 nM
IC50 ([3]; VEGFR-2 enzymatic IC50 (nM), mean of triplicate): 68 nM and 86 nM
vegfr2 %inh ([3]; conc 0.01 (unit not given)): 28.7%
vegfr2 %inh ([3]; conc 0.1 (unit not given)): 52.7%
vegfr2 %inh ([3]; conc 1 (unit not given)): 75.3%
vegfr2 %inh ([3]; conc 10 (unit not given)): 90.4%
viability at 3.125 µM ([4]; WI38 human lung fibroblast cells (normal cell line), Conc. 3.125 µM): 100%
viability at 6.25 µM ([4]; WI38 human lung fibroblast cells (normal cell line), Conc. 6.25 µM): 89.3%
viability at 12.5 µM ([4]; WI38 human lung fibroblast cells (normal cell line), Conc. 12.5 µM): 75.6%
viability at 25 µM ([4]; WI38 human lung fibroblast cells (normal cell line), Conc. 25 µM): 62.7%
viability at 50 µM ([4]; WI38 human lung fibroblast cells (normal cell line), Conc. 50 µM): 48.2%
viability at 100 µM ([4]; WI38 human lung fibroblast cells (normal cell line), Conc. 100 µM): 36.4%
viability at 1.56 µM ([4]; WI38 normal lung fibroblast cells, Conc. 1.56 µM): 100%
IC50 [5]: 48.2 ± 2.8 µM
viability at 1.56 µM [6, 13]: 88.6%
viability at 3.125 µM [6, 13]: 76.1%
viability at 6.25 µM [6, 13]: 53.7%
viability at 12.5 µM [6, 13]: 32.8%
viability at 25 µM [6, 13]: 24.5%
viability at 50 µM [6, 13]: 16%
viability at 100 µM [6, 13]: 8.2%
IC50 ([6]; read-out: In-vitro cytotoxicity IC50 (µM) Hela): 7.94 ± 0.5 µM
melting point: 207 to 209 °C
IC50 ([7]; PI3K-α IC50 ng/ml, supplement lab report): 6.43 nM
IC50 ([7]; PI3Kα enzymatic IC50 (nM), mean of triplicate): 2.21 ± 0.11 nM
PI3K-α %inh ([7]; conc 0.1 (unit not given)): 22.1%
PI3K-α %inh ([7]; conc 1 (unit not given)): 42.7%
PI3K-α %inh ([7]; conc 10 (unit not given)): 67%
PI3K-α %inh ([7]; conc 100 (unit not given)): 80.7%
IC50 [8]: 11 to 17 µM
Cell cycle analysis comment [9]: Pre-G1 apoptosis and cell growth arrest at G1/S phase
Cell cycle distribution (%) %G0–G1 [9]: 47.06%
Cell cycle distribution (%) %G2/M [9]: 1.71%
Cell cycle distribution (%) %S ([9]; 24 h): 51.23%
Cell cycle distribution (%) %Pre-G1 ([9]; after 48 h exposure): 24.71%
Cell cycle analysis comment ([9]; listed as OE-G12): cell growth arrest@G1/S phase
viability at 1.56 µM [10, 13]: 100%
viability at 3.125 µM [10, 13]: 93.7%
viability at 6.25 µM [10, 13]: 72.9%
viability at 12.5 µM [10, 13]: 51.6%
viability at 25 µM [10, 13]: 39.2%
viability at 50 µM [10, 13]: 27.1%
viability at 100 µM [10, 13]: 19.3%
IC50 ([10]; read-out: In-vitro cytotoxicity IC50 (µM) PC3): 17.5 ± 1.3 µM
late apoptotic induction [11]: 14.11%
early apoptotic effect ([11]; 24 h): 1.79%
necrotic effect ([11]; 24 h): 8.81%
late apoptotic induction, fold compared to Hela control cell ([11]; control 0.17%): 83 fold

Reference: PMC9556824, “Design, synthesis and computational study of new benzofuran hybrids as dual PI3K/VEGFR2 inhibitors targeting cancer” (Scientific Reports, 2022)
